We go through six compounds from US20180169045A1, “AMINO ACID COMPOSITIONS AND METHODS FOR THE TREATMENT OF LIVER DISEASES” (AXCELLA HEALTH INC., priority 2016, published 2018).

In assay [1] the test system is Primary human PMBC derived macrophages. In words: LPS-induced IL-6 secretion in primary human monocyte-derived macrophages (ELISA). The conditions noted are these: for IL-6 Measurements, Mean: Donor 1, baseline subtracted values; for IL-6 Measurements Mean (baseline subtracted): LPS 0.15 ng/mL; for LPS-induced IL-6 secretion, in words: primary human monocyte-derived macrophages. Also noted: IL-6 Measurements, Mean: unit not given here. In kind it is cell-based. Here is the method:
Isolation of Peripheral Blood Mononuclear Cell (PBMC) Unpurified buffy coats (Research Blood Components) were carefully poured into 50 mL centrifuge tubes and diluted with room temperature Dulbecco's Phosphate Buffered Saline (dPBS) with Calcium and Magnesium (Gibco). Diluted buffy coats were further divided into four total 50 mL centrifuge tubes at 20 mL per tube. Lymphocyte Separation Medium (Corning) was carefully pipetted to the bottom of each centrifuge tube. Mixtures were centrifuged at 850×g for 32 minutes at 20° C. with 0 deceleration and acceleration.
CD14+ cells were selected using EasySep™ Human CD14 Positive Selection Kit II ([…] Technologies). Cells were resuspended in cold EasySep™ Buffer ([…] Technologies) at 1×10^8 cells/mL. A total of 100 uL/mL EasySep™ Human CD14 Positive Selection Cocktail II was added to the cell suspension, mixed, and incubated at room temperature for 10 minutes. A total of 100 uL/mL RapidSpheres were added to the mixture and incubated at room temperature for 3 minutes after mixing, then RoboSep buffer was added to bring up the total volume to 10 mL. The mixture in a 15 mL tube was placed in magnet and incubated at room temperature for 3 minutes. Supernatant was discarded and 10 mL fresh EasySep™ buffer was added to 15 mL tube. The addition of RoboSep buffer, mixing, and discarding of supernatant was repeated two more times.
Negative and positive fractions were centrifuged at 490×g for 5 minutes at 20° C. with acceleration of 9, deceleration of 9, and resuspended in DMEM (Gibco) and 10% Heat Inactivated Fetal Bovine Serum (Atlanta Bio) and Penicillin/Streptomycin. Cells were counted and centrifuged again at 490×g for 5 minutes at 20° C. with acceleration of 9, deceleration of 9. After centrifugation, cell were resuspended in DMEM (Gibco) and 10% Heat Inactivated Fetal Bovine Serum (Atlanta Bio) and Penicillin/Streptomycin containing 500 U/mL […] and plated at 1-2×10^6 cells/mL on 10 cm tissue culture plates. Cells were kept in 37° C., 5% CO2 in between feedings/harvest.
Cells were fed every 3-4 days by removing media and unattached cells, centrifuging at 490×g for 5 minutes at 20 C with acceleration of 9, deceleration of 9, and resuspending in fresh DMEM (Gibco) and 10% Heat Inactivated Fetal Bovine Serum (Atlanta Bio) and Penicillin/Streptomycincontaining 500 U/mL GM-CSF. Resuspended cells were seeded back onto 10 cm tissue culture plates and incubated at 37° C., 5% CO2.
After complete cell attachment, culture supernatant was removed and cultures were washed 1× with 5 mL PBS. A total of 3 mL room temperature Cellstripper was added and cultures were incubated at 37° C., 5% CO2 for approximately 10 minutes until cells were rounded and beginning to detach. Cell scraper was used to completely detach cells from plate. Collected cell were spun down at 490 g for 5 min at room temperature and resuspended in 10% DMSO in Heat Inactivated Fetal Bovine Serum and immediately frozen in −80 C.
Primary human PMBC derived macrophages were seeded on day 0 at 3.0E4 cells per well in 96-well microplates (ThermoFisher) in Dulbecco's Modified Eagle Medium (DMEM) (Gibco) supplemented with penicillin-streptomycin (Hyclone) and 10% heat inactivated fetal bovine serum (HI-FBS) (Atlanta Bio) and incubated overnight at 37° C., 5% CO2. On day 1, cells were washed once with 150 uL per well DPBS (Gibco) and treated with 75 uL of: • a. Amino acid free DMEM (US Biologicals) containing a defined custom amino acid concentration based on the mean physiological concentrations in blood based on values published in the Human Metabolome Database (HMDB), with 6 mM glucose, 1 mM sodium pyruvate, 10 mM HEPES, 0.2% primocin (InVivoGen); or • b. The same medium described above with one amino acid at various concentrations including complete dropout. […]
(In general: An ELISA detects its analyte on a solid surface through an enzyme-linked reagent.)

Assay [2] deals with LX-2 hepatic stellate cells. In words: TGFβ1-induced fibrogenic gene expression (Col1a1, Acta2, Timp2) in LX-2 cells, qRT-PCR. The format is cell-based. The conditions noted are these: TGFβ1 5 ng/mL, combinations at 40× HMDB concentrations, N-acetylcysteine 10 mM. (Quantitative PCR measures a nucleic acid by following its amplification.)

With `CC(=O)N[C@@H](CS)C(=O)O` [N-acetylcysteine], the “IL-6 Measurements, Mean” value is recorded as 308.1772 in assay [1] (Conc. 5 X), −121.142 in assay [1] (Conc. 10 X), −553.802 in assay [1] (Conc. 20 X) and −914.194 in assay [1] (Conc. 40 X). The “IL-6 Measurements Mean (baseline subtracted)” value (shortened to “IL-6 Measurements Mean”) in assay [1] (Donor 2, Conc. 0 X (baseline)) is on record as −2.4E−15; in assay [1] (Donor 2, Conc. 20 X), −24.9999; in assay [1] (Donor 3, Conc. 0 X (baseline)) it was −9.5E−15; in assay [1] (Donor 3, Conc. 5 X), −70.3269; in assay [1] (Donor 3, Conc. 10 X) it was −103.586; in assay [1] (Donor 3, Conc. 20 X), −122.656. Further, the “IL-6 Measurements Mean” value in assay [1] (Donor 3, Conc. 40 X) is reported as −140.851. Also, the “LPS-induced IL-6 secretion, in words” value is on record as “significantly reduced” in assay [1] (Donor 1, 0.15 ng/mL LPS); “significantly reduced” in assay [1] (Donor 2, 0.15 ng/mL LPS); “significantly reduced” in assay [1] (Donor 3, 0.15 ng/mL LPS). Besides, the “Col1a1 gene expression, in words” value in assay [2] is recorded as “reduced”. For the same compound, the “Timp2 gene expression, in words” value in assay [2] is on record as “reduced”.
For `N=C(N)NCCC[C@H](N)C(=O)O` [Arginine, L-Arginine], in assay [1] (Donor 1, 0.15 ng/mL LPS), the “LPS-induced IL-6 secretion, in words” value is “increased”.
As to `CC[C@H](C)[C@H](N)C(=O)O` [Isoleucine, L-Isoleucine], the “IL-6 Measurements, Mean” value in assay [1] (Conc. 1328 μM) is 25.98; in assay [1] (Conc. 3320 μM) it was −15.8843; in assay [1] (Conc. 6639 μM), −218.332. Also, the “IL-6 Measurements Mean” value was −6.69 in assay [1] (Donor 3, Conc. 66 μM (baseline)); −28.9897 in assay [1] (Donor 3, Conc. 1328 μM); −16.3663 in assay [1] (Donor 3, Conc. 6639 μM).
With `CC(C)C[C@H](N)C(=O)O` [Leucine, L-Leucine], the “IL-6 Measurements, Mean” value in assay [1] (Conc. 3054 μM) is on record as 244.9743; in assay [1] (Conc. 7635 μM), −69.9873; in assay [1] (Conc. 15270 μM), 84.46. In addition, in assay [1] (Donor 2, 0.15 ng/mL LPS), the “LPS-induced IL-6 secretion, in words” value is “increased”.
Take `NC(=O)CC[C@H](N)C(=O)O` [Glutamine, L-Glutamine]: the results for the “IL-6 Measurements, Mean” value in assay [1] (Conc. 3747 μM), in assay [1] (Conc. 11242 μM) and in assay [1] (Conc. 22484 μM) were 291.5443, 397.1745 and 440.1437, respectively. Moreover, the “IL-6 Measurements Mean” value in assay [1] (Donor 3, Conc. 749 μM (baseline)) was 3.79E−14; in assay [1] (Donor 3, Conc. 3747 μM), 25.35; in assay [1] (Donor 3, Conc. 11242 μM), 98.4903; in assay [1] (Donor 3, Conc. 22484 μM) it was 108.5158. Further, the “LPS-induced IL-6 secretion, in words” value in assay [1] (Donor 1, 0.15 ng/mL LPS) is given as “increased”; in assay [1] (Donor 2, 0.15 ng/mL LPS), “increased”; in assay [1] (Donor 3, 0.15 ng/mL LPS), “significantly increased”.
Consider `CC(C)[C@H](N)C(=O)O` [Valine, L-Valine], for which the “IL-6 Measurements, Mean” value is −85.9843 in assay [1] (Conc. 4684 μM), −97.25 in assay [1] (Conc. 11710 μM) and −106.268 in assay [1] (Conc. 23420 μM). Also, the “IL-6 Measurements Mean” value in assay [1] (Donor 3, Conc. 234 μM (baseline)) is on record as 4.26E−14; in assay [1] (Donor 3, Conc. 4684 μM), −30.0609; in assay [1] (Donor 3, Conc. 11710 μM), −43.8022; in assay [1] (Donor 3, Conc. 23420 μM), −29.2004.
